Measured values as given in patent US9795602B2, “Polycyclic-carbamoylpyridone compounds and their pharmaceutical use” (Gilead Sciences, Inc., priority 2014, dated 2017).
Like-named read-outs stand apart in the source and are kept apart here.

Columns and labels:
Format in all cases: cell-based
PXR (NR1I2) = PXR (NR1I2) (Homo sapiens (Human), UniProt O75469); assay: Human PXR activation assay (luciferase reporter, DPX2 cells); conditions: human
Experimental: Luciferase Reporter Gene Assay.
A stably transformed tumor cell line (DPX2) was plated on 96-well microtiter plates. […]. The number of viable cells was determined and the reporter gene activity was assessed. […]

HIV-IIIb = assay: Antiviral assay in MT4 cells; conditions: Human immunodeficiency virus 1, IIIB, MT4, 120 h
Experimental: 1 mL aliquots of 2×10^6 MT4 cells are pre-infected for 1 and 3 hours respectively at 37° C. with 25 μL (MT4) or of either cell growth medium (mock-infected) or a fresh 1:250 dilution of an HIV-IIIb concentrated ABI stock (0.004 m.o.i. for MT4 cells). Infected and uninfected cells are diluted in cell growth medium and 35 μL of 2000 (for MT4) cells is added to each well of the assay plates.
(§1) Assay plates were then incubated in a 37° C. incubator. After 5 days of incubation, 25 μL of 2× concentrated CellTiter-Glo™ Reagent (catalog # G7573, Promega Biosciences, Inc., Madison, Wis.) was added to each well of the assay plate. Cell lysis was carried out by incubating at room temperature for 2-3 minutes, and then chemiluminescence was read using the Envision reader (PerkinElmer).

[1] = Cytotoxicity (CC50) in MT4 cells, mock-infected; conditions: human
Experimental: as §1, with “Infected and uninfected cells are diluted in cell growth medium and 35 μL of 2000 (for MT4) cells is added to each well of the assay plates. Assay” for “Assay”

[2] = 15 uM, DPX2 cells, % Emax relative to rifampicin, adjusted for DMSO background, read-out: PXR % inh at 15 uM (adjusted)
[3] = MT4 cells, HIV-IIIb, 5 days, read-out: EC50

Chain of PXR (NR1I2) (O75469 whole entry): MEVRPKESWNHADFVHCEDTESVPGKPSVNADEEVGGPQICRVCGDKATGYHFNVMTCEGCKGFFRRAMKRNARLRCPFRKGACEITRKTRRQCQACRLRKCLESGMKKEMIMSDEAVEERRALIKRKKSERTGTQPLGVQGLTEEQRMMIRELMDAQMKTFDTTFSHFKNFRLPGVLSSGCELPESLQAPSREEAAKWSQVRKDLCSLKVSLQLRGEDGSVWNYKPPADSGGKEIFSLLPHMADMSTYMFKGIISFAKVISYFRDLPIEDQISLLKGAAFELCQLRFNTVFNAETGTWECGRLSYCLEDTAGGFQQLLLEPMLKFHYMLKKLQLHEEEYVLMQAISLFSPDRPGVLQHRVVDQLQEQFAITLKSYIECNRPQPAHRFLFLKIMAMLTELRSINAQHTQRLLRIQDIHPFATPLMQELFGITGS

| Structure (SMILES) | inhibition at 24 h, 15 µM (PXR (NR1I2); [2]) [%] | EC50 (HIV-IIIb; [3]) [µM] | CC50 at 5 days ([1]; mock-infected) [µM] | inhibition at 24 h, 15 µM (PXR (NR1I2)) [%] | CC50 at 5 days ([1]; mock-infected (uninfected)) [µM] | inhibition at 15 µM (PXR (NR1I2)) [%] | EC50 (HIV-IIIb) [µM] | inhibition at 15 µM (PXR (NR1I2); [2]) [%] |
| --- | --- | --- | --- | --- | --- | --- | --- | --- |
| O=C(NCc1c(F)cc(F)cc1F)c1cn2c(c(O)c1=O)C(=O)N(C1CC1)[C@H]1OCC[C@H]12 (racemic) [Compound 21] | 6 | 0.00345 | 31.1 |  |  |  |  |  |
| CCCN1C(=O)c2c(O)c(=O)c(C(=O)NCc3c(F)cc(F)cc3F)cn2[C@@H]2CCO[C@@H]21 (racemic) [Compound 24] | 29 | 0.00729 | 37.5 |  |  |  |  |  |
| CN1C(=O)c2c(O)c(=O)c(C(=O)NCc3c(F)cc(F)cc3F)cn2[C@@H]2CCCC[C@H]21 [Compound 1] |  | 0.00643 |  | 32 | 27.3 |  |  |  |
| CN1C(=O)c2c(O)c(=O)c(C(=O)NCc3c(F)cc(F)cc3F)cn2[C@H]2CCCC[C@@H]21 [Compound 2] |  | 0.0039 |  | 46 | 11.2 |  |  |  |
| CN1C(=O)c2c(O)c(=O)c(C(=O)NCc3c(F)cc(F)cc3F)cn2[C@@H]2CCCC[C@@H]21 [Compound 3] |  | 0.00296 |  |  | 11 |  |  |  |
| CCN1C(=O)c2c(O)c(=O)c(C(=O)NCc3c(F)cc(F)cc3F)cn2[C@@H]2CCCC[C@@H]21 [Compound 5] | 66 | 0.00474 |  |  | 17 |  |  |  |
| O=C(NCc1c(F)cc(F)cc1F)c1cn2c(c(O)c1=O)C(=O)N(CC(F)(F)F)[C@@H]1CCCC[C@H]12 [Compound 7] | 36 | 0.0149 |  |  | 19.8 |  |  |  |
| O=C(NCc1c(F)cc(F)cc1F)c1cn2c(c(O)c1=O)C(=O)N(CC(F)(F)F)[C@@H]1CCOC[C@H]12 [Compound 8] | 24 | 0.0165 |  |  | 57.1 |  |  |  |
| CN1C(=O)c2c(O)c(=O)c(C(=O)NCc3c(F)cc(F)cc3F)cn2[C@H]2COCC[C@]21C(F)F [Compound 9] |  |  |  |  | 11.3 | 27 | 0.0014 |  |
| CN1C(=O)c2c(O)c(=O)c(C(=O)NCc3c(F)cc(F)cc3F)cn2[C@@H]2CCOC[C@H]21 [Compound 10] |  | 0.00765 |  |  | 34.9 |  |  |  |
| CN1C(=O)c2c(O)c(=O)c(C(=O)NCc3ccc(F)c(Cl)c3F)cn2[C@@H]2CCOC[C@H]21 [Compound 11] | 4 | 0.00369 |  |  | 8.32 |  |  |  |
| CCN1C(=O)c2c(O)c(=O)c(C(=O)NCc3ccc(F)c(Cl)c3F)cn2[C@@H]2CCOC[C@H]21 [Compound 13] | 5 | 0.0107 |  |  | 7.32 |  |  |  |
| CN1C(=O)c2c(O)c(=O)c(C(=O)NCc3c(F)cc(F)cc3F)cn2[C@H]2COCC[C@]21C [Compound 14] | 26 | 0.00289 |  |  | 11.6 |  |  |  |
| CCN1C(=O)c2c(O)c(=O)c(C(=O)NCc3cc(Cl)c(F)cc3F)cn2[C@H]2CCOC[C@H]21 [Compound 15] | 6 | 0.00792 |  |  | 14.9 |  |  |  |
| CCN1C(=O)c2c(O)c(=O)c(C(=O)NCc3cccc(Cl)c3F)cn2[C@H]2CCOC[C@H]21 [Compound 16] | 7 | 0.00213 |  |  | 11.5 |  |  |  |
| CCN1C(=O)c2c(O)c(=O)c(C(=O)NCc3cc(F)c(F)cc3F)cn2[C@H]2CCOC[C@H]21 [Compound 17] | 7 | 0.00481 |  |  | 23.9 |  |  |  |
| CCN1C(=O)c2c(O)c(=O)c(C(=O)NCc3cccc(F)c3F)cn2[C@H]2CCOC[C@H]21 [Compound 18] | 2 | 0.00333 |  |  | 26.9 |  |  |  |
| CCN1C(=O)c2c(O)c(=O)c(C(=O)NCc3ccc(F)c(F)c3F)cn2[C@H]2CCOC[C@H]21 [Compound 19] | 11 | 0.00428 |  |  | 27.8 |  |  |  |

| Structure (SMILES) | inhibition at 24 h, 15 µM (PXR (NR1I2); [2]) [%] | EC50 (HIV-IIIb; [3]) [µM] | CC50 at 5 days ([1]; mock-infected) [µM] | inhibition at 24 h, 15 µM (PXR (NR1I2)) [%] | CC50 at 5 days ([1]; mock-infected (uninfected)) [µM] | inhibition at 15 µM (PXR (NR1I2)) [%] | EC50 (HIV-IIIb) [µM] | inhibition at 15 µM (PXR (NR1I2); [2]) [%] |
| --- | --- | --- | --- | --- | --- | --- | --- | --- |
| CCN1C(=O)c2c(O)c(=O)c(C(=O)NCc3ccc(F)c(F)c3)cn2[C@H]2CCOC[C@H]21 [Compound 20] | 1 | 0.0096 |  |  | 34.1 |  |  |  |
| CN1C(=O)c2c(O)c(=O)c(C(=O)NCc3c(F)cc(F)cc3F)cn2[C@@H]2CCO[C@@H]21 [Compound 23] | 8 | 0.00377 |  |  | 18 |  |  |  |
| CCN1C(=O)c2c(O)c(=O)c(C(=O)NCc3ccc(F)c(Cl)c3F)cn2[C@@H]2CCO[C@@H]21 [Compound 25a] | 20 | 0.00458 |  |  | 25.9 |  |  |  |
| CCN1C(=O)c2c(O)c(=O)c(C(=O)NCc3c(F)cc(F)cc3F)cn2[C@@H]2CCO[C@@H]21 [Compound 26a] | 15 | 0.00527 |  |  | 24.3 |  |  |  |
| CCN1C(=O)c2c(O)c(=O)c(C(=O)NCc3c(F)cc(F)cc3F)cn2[C@H]2CCO[C@H]21 [Compound 26b] | 24 | 0.00493 |  |  | 30.9 |  |  |  |
| CN1C(=O)c2c(O)c(=O)c(C(=O)NCc3ccc(F)c(Cl)c3F)cn2[C@@H]2CCO[C@@H]21 [Compound 27] |  | 0.00117 |  |  | 57.1 |  |  |  |
| O=C(NCc1c(F)cc(F)cc1F)c1cn2c(c(O)c1=O)C(=O)N[C@H]1CCC[C@H]12 [Compound 28] | 4 | 0.0044 |  |  | 10.8 |  |  |  |
| CN1C(=O)c2c(O)c(=O)c(C(=O)NCc3c(F)cc(F)cc3F)cn2[C@@H]2CCC[C@@H]21 [Compound 29] |  |  |  |  |  |  |  | 49 |
| CN1C(=O)c2c(O)c(=O)c(C(=O)NCc3c(F)cc(F)cc3F)cn2[C@@H]2CCOC[C@@H]21 [Compound 30] | 9 | 0.00325 |  |  | 10.4 |  |  |  |
| O=C(NCc1c(F)cc(F)cc1F)c1cn2c(c(O)c1=O)C(=O)N(CC(F)F)[C@@H]1COCC[C@@H]12 [Compound 34] | 3 | 0.00223 |  |  | 32.3 |  |  |  |
| O=C(NCc1c(F)cc(F)cc1F)c1cn2c(c(O)c1=O)C(=O)N(CC(F)(F)F)[C@@H]1COCC[C@H]12 [Compound 35] | 6 | 0.0038 |  |  | 16.5 |  |  |  |
| O=C(NCc1ccc(F)c(Cl)c1F)c1cn2c(c(O)c1=O)C(=O)N(CC(F)F)[C@@H]1COCC[C@@H]12 [Compound 36] | 5 | 0.00158 |  |  | 19.7 |  |  |  |
| CCCN1C(=O)c2c(O)c(=O)c(C(=O)NCc3c(F)cc(F)cc3F)cn2[C@H]2CCOC[C@H]21 [Compound 37] | 35 | 0.00427 |  |  | 33.9 |  |  |  |
| CC(C)N1C(=O)c2c(O)c(=O)c(C(=O)NCc3c(F)cc(F)cc3F)cn2[C@H]2CCOC[C@H]21 [Compound 38] | 67 | 0.00283 |  |  | 16.6 |  |  |  |
| CCN1C(=O)c2c(O)c(=O)c(C(=O)NCc3c(F)cc(F)cc3F)cn2[C@H]2CCC(=O)C[C@H]21 [Compound 40a] |  | 0.00128 |  | 4 | 29 |  |  |  |
| CCN1C(=O)c2c(O)c(=O)c(C(=O)NCc3c(F)cc(F)cc3F)cn2[C@H]2CCC3(C[C@H]21)OCCO3 [Compound 40b] |  | 0.00131 |  | 22 | 23.1 |  |  |  |
| CN1C(=O)c2c(O)c(=O)c(C(=O)NCc3c(F)cc(F)cc3F)cn2[C@H]2COC[C@H]21 [Compound 42] | 3 | 0.00567 |  |  | 31.9 |  |  |  |
| CN1C(=O)c2c(O)c(=O)c(C(=O)NCc3c(F)cc(F)cc3F)cn2[C@H]2CCC[C@H]21 [Compound 58] |  |  |  |  |  |  |  | 25 |
